Source: article PMC5218480 (PLoS ONE, 2017)

System: MV-4-11 cells
Test: Gene expression microarray analysis (Affymetrix PrimeView) and GSEA
Format: cell-based, human
Set-up: RFU PODN (11730768_x_at) / Fold change /veh PODN (11730768_x_at) / RFU LINC00158 (11744669_a_at) / Fold change /veh LINC00158 (11744669_a_at) / RFU DUSP10 (11751237_a_at) / Fold change /veh DUSP10 (11751237_a_at) / RFU ID3 (11757404_x_at) / Fold change /veh ID3 (11757404_x_at) / RFU PLEKHG5 (11737974_s_at) / Fold change /veh PLEKHG5 (11737974_s_at) / RFU LRRC4B (11730491_at) / Fold change /veh LRRC4B (11730491_at) / RFU GIMAP4 (11747438_a_at) / Fold change /veh GIMAP4 (11747438_a_at) / RFU KRT8 (11758183_x_at) / Fold change /veh KRT8 (11758183_x_at) / RFU CNN1 (11734310_a_at) / Fold change /veh CNN1 (11734310_a_at) / RFU VPS37D (11726825_at) / Fold change /veh VPS37D (11726825_at) / RFU C10orf10 (11716522_x_at) / Fold change /veh C10orf10 (11716522_x_at) / RFU KIR2DL2 /// KIR2DL4 /// KIR2DL5A /// KIR2DL5B /// KIR2DS1 /// KIR2DS2 /// KIR2DS3 /// KIR2DS4 /// KIR3DL3 /// KIR3DL3 /// KIR3DS1 (11738374_at) / Fold change /veh KIR2DL2 /// KIR2DL4 /// KIR2DL5A /// KIR2DL5B /// KIR2DS1 /// KIR2DS2 /// KIR2DS3 /// KIR2DS4 /// KIR3DL3 /// KIR3DL3 /// KIR3DS1 (11738374_at) / RFU C1QL1 (11718748_at) / Fold change /veh C1QL1 (11718748_at) / RFU TMPRSS4 (11747572_a_at) / Fold change /veh TMPRSS4 (11747572_a_at) / RFU HAMP (11756126_x_at) / Fold change /veh HAMP (11756126_x_at) / RFU RNFT2 (11725882_a_at) / Fold change /veh RNFT2 (11725882_a_at) / RFU NR4A2 (11747474_a_at) / Fold change /veh NR4A2 (11747474_a_at) / RFU ABCC12 (11746883_a_at) / Fold change /veh ABCC12 (11746883_a_at) / RFU TMEM136 (11760407_x_at) / Fold change /veh TMEM136 (11760407_x_at) / RFU CLDN22 /// WWC2 (11732394_at) / Fold change /veh CLDN22 /// WWC2 (11732394_at) / RFU HLA-DPB1 (11760878_x_at) / Fold change /veh HLA-DPB1 (11760878_x_at) / RFU SPINT1 (11716480_a_at) / Fold change /veh SPINT1 (11716480_a_at) / RFU GAP43 (11754022_s_at) / Fold change /veh GAP43 (11754022_s_at) / RFU A4GNT (11735810_at) / Fold change /veh A4GNT (11735810_at) / RFU PRB3 (11715151_x_at) / Fold change /veh PRB3 (11715151_x_at) / RFU TUBB4B (11761932_at) / Fold change /veh TUBB4B (11761932_at) / RFU CAPN14 (11732068_a_at) / Fold change /veh CAPN14 (11732068_a_at) / RFU TMCC2 (11721928_a_at) / Fold change /veh TMCC2 (11721928_a_at) / RFU IRGQ (11745062_a_at) / Fold change /veh IRGQ (11745062_a_at) / RFU FAM174B (11720279_a_at) / Fold change /veh FAM174B (11720279_a_at) / RFU TMPRSS4 (11748680_a_at) / Fold change /veh TMPRSS4 (11748680_a_at) / RFU FAM212B (11763350_a_at) / Fold change /veh FAM212B (11763350_a_at) / RFU PLEKHG5 (11743358_a_at) / Fold change /veh PLEKHG5 (11743358_a_at) / RFU ZSCAN30 (11745921_a_at) / Fold change /veh ZSCAN30 (11745921_a_at) / RFU CMKLR1 (11741424_a_at) / Fold change /veh CMKLR1 (11741424_a_at) / RFU LOC101060620 /// MAPK8IP1 (11723275_at) / Fold change /veh LOC101060620 /// MAPK8IP1 (11723275_at) / RFU SPTSSB (11747773_x_at) / Fold change /veh SPTSSB (11747773_x_at) / RFU PRSS12 (11739890_at) / Fold change /veh PRSS12 (11739890_at) / RFU BIN1 (11741810_x_at) / Fold change /veh BIN1 (11741810_x_at) / RFU WNT11 (11732464_a_at) / Fold change /veh WNT11 (11732464_a_at) / RFU C10orf10 (11716521_a_at) / Fold change /veh C10orf10 (11716521_a_at) / RFU C5orf56 (11738089_at) / Fold change /veh C5orf56 (11738089_at) / RFU CYB561 (11721691_x_at) / Fold change /veh CYB561 (11721691_x_at) / RFU ANKRD19P (11752326_a_at) / Fold change /veh ANKRD19P (11752326_a_at) / RFU OR2T12 /// OR2T33 /// OR2T8 (11738714_s_at) / Fold change /veh OR2T12 /// OR2T33 /// OR2T8 (11738714_s_at) / RFU VCAN (11748164_a_at) / Fold change /veh VCAN (11748164_a_at) / RFU JSRP1 (11732532_at) / Fold change /veh JSRP1 (11732532_at) / RFU KRTAP10-11 (11738290_x_at) / Fold change /veh KRTAP10-11 (11738290_x_at) / RFU MYO3A (11730013_a_at) / Fold change /veh MYO3A (11730013_a_at) / RFU EBF3 (11725865_a_at) / Fold change /veh EBF3 (11725865_a_at) / RFU CAMK2N1 (11719241_x_at) / Fold change /veh CAMK2N1 (11719241_x_at) / RFU C5orf56 (11738088_a_at) / Fold change /veh C5orf56 (11738088_a_at) / RFU OLFML3 (11715873_a_at) / Fold change /veh OLFML3 (11715873_a_at) / RFU LOC100653217 /// NTM (11731650_a_at) / Fold change /veh LOC100653217 /// NTM (11731650_a_at) / RFU MAPK11 (11762145_a_at) / Fold change /veh MAPK11 (11762145_a_at) / RFU FIZ1 (11724087_x_at) / Fold change /veh FIZ1 (11724087_x_at) / RFU OASL (11726364_x_at) / Fold change /veh OASL (11726364_x_at) / RFU SOX15 (11748057_x_at) / Fold change /veh SOX15 (11748057_x_at) / RFU CD79A (11719716_a_at) / Fold change /veh CD79A (11719716_a_at) / RFU HIST1H1D (11736915_at) / Fold change /veh HIST1H1D (11736915_at) / RFU CASKIN2 (11723855_a_at) / Fold change /veh CASKIN2 (11723855_a_at) / RFU LOC730098 (11760151_x_at) / Fold change /veh LOC730098 (11760151_x_at) / RFU OR4N2 (11742367_at) / Fold change /veh OR4N2 (11742367_at) / RFU PRRT2 (11749266_a_at) / Fold change /veh PRRT2 (11749266_a_at) / RFU SNX32 (11753110_a_at) / Fold change /veh SNX32 (11753110_a_at) / RFU CDHR5 (11726645_a_at) / Fold change /veh CDHR5 (11726645_a_at) / RFU RCAN1 (11760418_a_at) / Fold change /veh RCAN1 (11760418_a_at) / RFU FAM167A (11723789_a_at) / Fold change /veh FAM167A (11723789_a_at) / RFU FAM26E (11764081_at) / Fold change /veh FAM26E (11764081_at) / RFU ISYNA1 (11749810_s_at) / Fold change /veh ISYNA1 (11749810_s_at) / RFU ACY1 (11761880_at) / Fold change /veh ACY1 (11761880_at) / RFU 11764098_at / Fold change /veh 11764098_at / RFU SAMD14 (11745864_x_at) / Fold change /veh SAMD14 (11745864_x_at) / RFU NPB (11741838_a_at) / Fold change /veh NPB (11741838_a_at) / RFU TMPRSS6 (11731388_a_at) / Fold change /veh TMPRSS6 (11731388_a_at) / RFU KRTAP10-2 (11738614_at) / Fold change /veh KRTAP10-2 (11738614_at) / RFU ARHGAP8 /// PRR5-ARHGAP8 (11727945_x_at) / Fold change /veh ARHGAP8 /// PRR5-ARHGAP8 (11727945_x_at) / RFU KRTAP5-7 /// NADSYN1 (11734609_at) / Fold change /veh KRTAP5-7 /// NADSYN1 (11734609_at) / RFU RASL12 (11751679_a_at) / Fold change /veh RASL12 (11751679_a_at) / RFU CDKN2B (11736163_a_at) / Fold change /veh CDKN2B (11736163_a_at) / RFU PRF1 (11729649_at) / Fold change /veh PRF1 (11729649_at) / RFU, ZNF638 /// ZNF638-IT1 / Fold change vs veh, ZNF638 /// ZNF638-IT1 / RFU, PANK3 / Fold change vs veh, PANK3 / RFU, SH3YL1 / Fold change vs veh, SH3YL1 / RFU, ZEB2 / Fold change vs veh, ZEB2 / RFU, NRIP1 / Fold change vs veh, NRIP1 / RFU, PTTG1IP / Fold change vs veh, PTTG1IP / RFU, CAPN2 / Fold change vs veh, CAPN2 / RFU, MED14 / Fold change vs veh, MED14 / RFU, SNORA58 / Fold change vs veh, SNORA58 / RFU, C1orf63 / Fold change vs veh, C1orf63 / RFU, LRRFIP1 / Fold change vs veh, LRRFIP1 / RFU, NDUFAF7 / Fold change vs veh, NDUFAF7 / RFU, SLC12A2 / Fold change vs veh, SLC12A2 / RFU, IBTK / Fold change vs veh, IBTK / RFU, ESF1 / Fold change vs veh, ESF1 / Fold change vs veh, TMEM50B / RFU, TAOK1 / Fold change vs veh, TAOK1 / RFU, ACBD3 / Fold change vs veh, ACBD3 / RFU, TMA16 / Fold change vs veh, TMA16 / RFU, RWDD3 / Fold change vs veh, RWDD3 / RFU, BCAT1 / Fold change vs veh, BCAT1 / RFU, EDEM3 / Fold change vs veh, EDEM3 / RFU, TMEM33 / Fold change vs veh, TMEM33 / RFU, WDR75 / Fold change vs veh, WDR75 / RFU, AHCTF1 / Fold change vs veh, AHCTF1 / RFU, TFRC / Fold change vs veh, TFRC / RFU, ZDHHC17 / Fold change vs veh, ZDHHC17 / RFU, NOM1 / Fold change vs veh, NOM1 / RFU, ARL8B / Fold change vs veh, ARL8B / RFU, ZBTB11 / Fold change vs veh, ZBTB11 / RFU, TAMM41 / Fold change vs veh, TAMM41 / RFU, KIAA1704 /// LOC100996395 / Fold change vs veh, KIAA1704 /// LOC100996395 / RFU, ING1 / Fold change vs veh, ING1 / RFU, TRMT61B / Fold change vs veh, TRMT61B / RFU, FUBP3 / Fold change vs veh, FUBP3 / RFU, TP53 / Fold change vs veh, TP53 / RFU, TNKS2 / Fold change vs veh, TNKS2 / RFU, ZFP14 / Fold change vs veh, ZFP14 / RFU, ACTR2 / Fold change vs veh, ACTR2 / RFU, PPP3R1 / Fold change vs veh, PPP3R1 / RFU, PIK3R1 / Fold change vs veh, PIK3R1 / RFU, HNRNPA1 / Fold change vs veh, HNRNPA1 / RFU, RNF170 / Fold change vs veh, RNF170 / RFU, ZNF28 / Fold change vs veh, ZNF28 / RFU, RNGTT / Fold change vs veh, RNGTT / RFU, OGT / Fold change vs veh, OGT / RFU, BRD1 / Fold change vs veh, BRD1 / RFU, MARS / Fold change vs veh, MARS / RFU, ZNF655 / Fold change vs veh, ZNF655 / RFU, FAHD1 / Fold change vs veh, FAHD1 / RFU, BDP1 / Fold change vs veh, BDP1 / RFU, LRRCC1 / Fold change vs veh, LRRCC1 / RFU, ARID1A / Fold change vs veh, ARID1A / RFU, ZNF146 / Fold change vs veh, ZNF146 / RFU, ZNF330 / Fold change vs veh, ZNF330 / RFU, GPN3 / Fold change vs veh, GPN3 / RFU, C9orf123 / Fold change vs veh, C9orf123 / RFU, N4BP2L2 / Fold change vs veh, N4BP2L2 / RFU, ARFIP1 / Fold change vs veh, ARFIP1 / RFU, FAM179B / Fold change vs veh, FAM179B / RFU, BCL10 / Fold change vs veh, BCL10 / RFU, UHRF1BP1L / Fold change vs veh, UHRF1BP1L / RFU, BET1 / Fold change vs veh, BET1 / RFU, CNOT2 / Fold change vs veh, CNOT2 / RFU, ZNF268 / Fold change vs veh, ZNF268 / Fold change vs veh, ZNF507 / RFU, DGCR2 / Fold change vs veh, DGCR2 / RFU, WDSUB1 / Fold change vs veh, WDSUB1 / Fold change vs veh, HSP90B1 /// MIR3652 / RFU, ADSS / Fold change vs veh, ADSS / RFU, GK / Fold change vs veh, GK / RFU, ZNF148 / Fold change vs veh, ZNF148 / RFU, TAF9 / Fold change vs veh, TAF9 / RFU, SLC1A5 / Fold change vs veh, SLC1A5 / RFU, SLMO2 / Fold change vs veh, SLMO2 / RFU, ABCC4 / Fold change vs veh, ABCC4 / RFU, LOC101060439 /// RAP1B / Fold change vs veh, LOC101060439 /// RAP1B / RFU, RFX7 / Fold change vs veh, RFX7 / RFU, GTPBP10 / Fold change vs veh, GTPBP10 / RFU, CNEP1R1 / Fold change vs veh, CNEP1R1 / RFU, BIVM-ERCC5 /// ERCC5 / Fold change vs veh, BIVM-ERCC5 /// ERCC5 / RFU, ILF3 / Fold change vs veh, ILF3 / RFU 11762660_at / Fold change /veh 11762660_at / RFU VCAN (11757783_s_at) / Fold change /veh VCAN (11757783_s_at) / RFU DDX43 (11728927_at) / Fold change /veh DDX43 (11728927_at) / RFU KRT8 (11758188_x_at) / Fold change /veh KRT8 (11758188_x_at) / RFU NKD1 (11759106_at) / Fold change /veh NKD1 (11759106_at) / RFU SRD5A1 (11742802_a_at) / Fold change /veh SRD5A1 (11742802_a_at) / RFU TPSAB1 /// TPSB2 (11721975_s_at) / Fold change /veh TPSAB1 /// TPSB2 (11721975_s_at) / RFU GSTM3 (11746129_a_at) / Fold change /veh GSTM3 (11746129_a_at) / RFU IL23R (11737362_x_at) / Fold change /veh IL23R (11737362_x_at) / RFU TMEM51 (11727254_a_at) / Fold change /veh TMEM51 (11727254_a_at) / RFU PIWIL2 (11732686_x_at) / Fold change /veh PIWIL2 (11732686_x_at) / RFU ORM1 (11744905_x_at) / Fold change /veh ORM1 (11744905_x_at) / RFU CCDC152 (11743942_at) / Fold change /veh CCDC152 (11743942_at) / RFU ECM1 (11717891_a_at) / Fold change /veh ECM1 (11717891_a_at) / RFU IL23R (11748794_a_at) / Fold change /veh IL23R (11748794_a_at) / RFU TNFAIP8L3 (11732012_x_at) / Fold change /veh TNFAIP8L3 (11732012_x_at) / RFU MBOAT4 (11741988_at) / Fold change /veh MBOAT4 (11741988_at) / RFU 11764193_at / Fold change /veh 11764193_at / RFU TMEM53 (11763286_at) / Fold change /veh TMEM53 (11763286_at) / RFU MAGEB2 (11727129_at) / Fold change /veh MAGEB2 (11727129_at) / RFU TMEM200A (11744735_a_at) / Fold change /veh TMEM200A (11744735_a_at) / RFU CCDC152 (11751479_a_at) / Fold change /veh CCDC152 (11751479_a_at) / RFU FAM211A (11726209_a_at) / Fold change /veh FAM211A (11726209_a_at) / RFU RGS16 (11746705_a_at) / Fold change /veh RGS16 (11746705_a_at) / RFU VCAN (11755009_s_at) / Fold change /veh VCAN (11755009_s_at) / RFU RHOB (11743442_s_at) / Fold change /veh RHOB (11743442_s_at) / RFU RGS16 (11720943_a_at) / Fold change /veh RGS16 (11720943_a_at) / RFU RGS16 (11720944_at) / Fold change /veh RGS16 (11720944_at) / RFU, VPS4B / Fold change vs veh, VPS4B / RFU, CREB1 / Fold change vs veh, CREB1 / RFU, DNAJC13 / Fold change vs veh, DNAJC13 / RFU, GNAQ / Fold change vs veh, GNAQ / RFU, CDK5R1 / Fold change vs veh, CDK5R1 / RFU, ZRANB3 / Fold change vs veh, ZRANB3 / RFU, CUL4A / Fold change vs veh, CUL4A / RFU, CCNY / Fold change vs veh, CCNY / RFU, UFL1 / Fold change vs veh, UFL1 / RFU, COG3 / Fold change vs veh, COG3 / RFU, DIAPH2 / Fold change vs veh, DIAPH2 / RFU, SKA2 / Fold change vs veh, SKA2 / RFU, AFF3 / Fold change vs veh, AFF3 / RFU, LMF1 / Fold change vs veh, LMF1 / RFU, IPO11 / Fold change vs veh, IPO11 / RFU, DFFB / Fold change vs veh, DFFB / RFU, FOXP1 / Fold change vs veh, FOXP1 / RFU, CARD8 / Fold change vs veh, CARD8 / RFU, STRN3 / Fold change vs veh, STRN3 / RFU, ADK / Fold change vs veh, ADK / RFU, RASSF2 / Fold change vs veh, RASSF2 / RFU, WIPF1 / Fold change vs veh, WIPF1 / RFU, LARP1B / Fold change vs veh, LARP1B / RFU, RASA1 / Fold change vs veh, RASA1 / RFU, RB1 / Fold change vs veh, RB1 / RFU, PPFIA1 / Fold change vs veh, PPFIA1 / RFU, MAT2A / Fold change vs veh, MAT2A / RFU, CCT5 / Fold change vs veh, CCT5 / RFU, WDR92 / Fold change vs veh, WDR92 / RFU, CUX1 / Fold change vs veh, CUX1 / RFU, TTC7A / Fold change vs veh, TTC7A / RFU, TMEM135 / Fold change vs veh, TMEM135 / RFU, DEPTOR / Fold change vs veh, DEPTOR / RFU, CPM / Fold change vs veh, CPM / RFU, DNAJB6 / Fold change vs veh, DNAJB6 / RFU, CACNA2D3 / Fold change vs veh, CACNA2D3 / RFU, DTX4 / Fold change vs veh, DTX4 / RFU, TFCP2 / Fold change vs veh, TFCP2 / RFU, GMCL1 /// GMCL1P1 / Fold change vs veh, GMCL1 /// GMCL1P1 / RFU, AEBP2 / Fold change vs veh, AEBP2 / RFU, SNHG1 /// SNORD22 /// SNORD25 /// SNORD26 /// SNORD27 /// SNORD28 /// SNORD29 /// SNORD31 / Fold change vs veh, SNHG1 /// SNORD22 /// SNORD25 /// SNORD26 /// SNORD27 /// SNORD28 /// SNORD29 /// SNORD31 / Fold change (Aza/veh), C12orf56 (ProbeSet 11735607_a_at) / Fold change (ACY-1035/veh), C12orf56 (ProbeSet 11735607_a_at) / Fold change (Aza/veh), FGFR1OP (ProbeSet 11751329_s_at) / Fold change (ACY-1035/veh), FGFR1OP (ProbeSet 11751329_s_at) / Fold change (Aza/veh), VPS36 (ProbeSet 11739960_a_at) / Fold change (ACY-1035/veh), VPS36 (ProbeSet 11739960_a_at) / RFU SYPL1 (11715823_x_at) / Fold change /veh SYPL1 (11715823_x_at) / RFU IGFBP7 (11715501_s_at) / Fold change /veh IGFBP7 (11715501_s_at) / RFU REEP3 (11722064_at) / Fold change /veh REEP3 (11722064_at) / RFU IGLL1 (11728026_x_at) / Fold change /veh IGLL1 (11728026_x_at): dose or concentration left out as unconfirmed
Conditions: ProbeSet 11721521_at; LIST B

## Nc1ncn([C@@H]2O[C@H](CO)[C@@H](O)[C@H]2O)c(=O)n1 [azacitidine]
  Fold change vs veh, ZDHHC17: 0.88
